Test results taken from paper PMC12349723, “Computationally accelerated identification of P-glycoprotein inhibitors” (PLOS One, 2025).
“And” between values parts separate entries of the source, which are not always exact repeats. Identical values can stand only once.

Tests used:
[1] = system: A2780 cells; assay: MTT viability assay, parental A2780 cells, with or without PTX; format: cell-based, human; conditions: for Mean % Survival / % Survival (individual sample): A2780 cells; for % Survival (individual sample): single samples; for Increase of PTX toxicity against parental A2780 cells: 15 µM compound with or without 500 nM PTX, 48 h, MTT
Description: The chemotherapeutic sensitive DU145 human prostate cancer cells and the multidrug resistant sub-line, DU145-TXR, were generous gifts from Dr. Evan Keller (University of Michigan, Ann Arbor, MI). The MDR, P-gp overexpressing DU145-TXR cells were maintained under positive selection pressure by supplementing complete medium with 10 nM paclitaxel (Acros Organics, NJ). In addition to the aforementioned cell lines, the chemotherapeutic sensitive A2780 ovarian cancer cells (93112519, Sigma) and the multidrug resistant A2780-ADR (93112520, Sigma) were maintained in complete RPMI media consisting of RPMI-1640 with L-glutamine, 10% fetal bovine serum (FBS; Corning), 100 U/mL penicillin and 100 μg/mL streptomycin in a humidified incubator at 37 °C and 5% CO2. The MDR, P-gp overexpressing A2780-ADR cell line was maintained under positive selection pressure by supplementing complete medium with 100 nM doxorubicin (Fisher Scientific, NJ). The non-cancerous HFL1 (human lung fibroblast) cell line cell line was a generous gift from Dr. Robert Harrod (Southern Methodist University, Dallas, TX) and was maintained in complete F12K media consisting of F12K with 10% fetal bovine serum, 100 U/mL penicillin, and 100 µg/mL streptomycin (Gibco). Flasks and 96 well plates that were used with the non-cancerous line HFL1 were pre-treated with 0.1 mg/ml Collagen Type 1 (Gibco) and rinsed with PBS (Fisher).
Culture of the DU145, DU145-TXR, and HFL1 cell lines was performed as described in [8]. Culture of the A2780 and A2780-ADR cell lines was performed as described in [9]. MTT assays were performed as described in [8] with minor modifications. LC-MS/MS accumulation assays were performed as described in {Nanayakkara, 2018 #173} [9] with some modifications. […] The inhibitor concentration was lowered to 15 µM here, as the goal of the study was to identify compounds that were effective in reversing MDR at low concentrations, and to determine if the expanded virtual-assisted methods improved on our first-draft attempt. Compounds 56–98 were pre-screened using Resazurin cell viability assays: cells were incubated with 15 µM compound with or without 500 nM PTX for 48 hours, after which cell survival was assessed similar to [39]. Data represent the mean of two separate experiments, with n = 3 samples per experiment (n = 6 total) (S4 Table). The top performing compounds from this initial screen were re-tested with MTT viability assays against DU145-TXR cells, as described below.
MTT assays measure the reduction of yellow, water soluble 3-(4,5-dimethylthiazol-2-yl)-2,5-diphenyltetrazolium bromide (MTT) to blue, insoluble formazan crystals by cellular reductase processes in living cells. Cells were trypsinized from monolayers and seeded in complete medium in 96 well plates. Cancerous cell lines (DU145, DU145-TXR, A2780, A2780-ADR) were seeded at 3,000 cells per well in complete RPMI medium. The non-cancerous HFL1 line was seeded at 4,000 cells per well in complete F12K medium, in collagen-treated plates (Collagen Type 1, Gibco). Cells were incubated with experimental compounds for 48 hours at 37 °C and 5% CO2 in a humidified incubator. At 48 hours, MTT was added (20 µL/well of 5 mg/mL MTT in PBS) to each well. After incubation for 4 hours, the media was removed, and the formazan crystals were dissolved in 100 µL DMSO per well. Plates containing the semi-adherent A2780 or A2780-ADR lines were spun at 1400 rpm for 3 minutes prior to aspiration of media, and the addition of DMSO. Plates were shaken for 10 minutes at 500 rpm on an Orbital shaker (LabDoctor from MidSci, St Louis, MO). The absorbance was measured at 570 nm using a Bio-Tek Cytation 5 (Bio-Tek, Winooski, VT). The measured absorbance value was correlated with the number of metabolically active cells in that well, corrected for absorbance of media. […]

[2] = molecular target: T1, P-gp (Homo sapiens, UniProt P08183); assay: LC-MS/MS intracellular accumulation assay with or without tariquidar (P-gp transport substrate test) in DU145-TXR cells; format: in vitro ADME; conditions: for P-gp transport substrate assessment / Intracellular accumulation (normalized ratio of compound to internal standard), Trial 1, + TQR / Intracellular accumulation (normalized ratio of compound to internal standard), Trial 2, + TQR / Intracellular accumulation (normalized ratio of compound to internal standard), Trial 1, - TQR / Intracellular accumulation (normalized ratio of compound to internal standard), Trial 2, - TQR: DU145-TXR, 2.5 h; for P-gp transport substrate assessment: 5 µM compound with or without 500 nM tariquidar, LC-MS/MS; for Intracellular accumulation (normalized ratio of compound to internal standard), Trial 1, + TQR / Intracellular accumulation (normalized ratio of compound to internal standard), Trial 2, + TQR / Intracellular accumulation (normalized ratio of compound to internal standard), Trial 1, - TQR / Intracellular accumulation (normalized ratio of compound to internal standard), Trial 2, - TQR: 5 µM compound, mean ± SD, triplicate; for Intracellular accumulation (normalized ratio of compound to internal standard), Trial 1, + TQR / Intracellular accumulation (normalized ratio of compound to internal standard), Trial 2, + TQR: with 500 nM tariquidar; for Intracellular accumulation (normalized ratio of compound to internal standard), Trial 1, - TQR / Intracellular accumulation (normalized ratio of compound to internal standard), Trial 2, - TQR: without tariquidar; for P (- TQR vs + TQR), Trial 1 / P (- TQR vs + TQR), Trial 2: Student's T test of the mean; for Significance of accumulation with tariquidar, Trial 1 / Significance of accumulation with tariquidar, Trial 2: significant difference = likely P-gp transport substrate
T1 construct: The MDR, P-gp overexpressing DU145-TXR cells were maintained under positive selection pressure; endogenous in cells; host or cells: DU145-TXR (paclitaxel-resistant sub-line of DU145 human prostate cancer cells)
T1 sequence (P08183 whole entry): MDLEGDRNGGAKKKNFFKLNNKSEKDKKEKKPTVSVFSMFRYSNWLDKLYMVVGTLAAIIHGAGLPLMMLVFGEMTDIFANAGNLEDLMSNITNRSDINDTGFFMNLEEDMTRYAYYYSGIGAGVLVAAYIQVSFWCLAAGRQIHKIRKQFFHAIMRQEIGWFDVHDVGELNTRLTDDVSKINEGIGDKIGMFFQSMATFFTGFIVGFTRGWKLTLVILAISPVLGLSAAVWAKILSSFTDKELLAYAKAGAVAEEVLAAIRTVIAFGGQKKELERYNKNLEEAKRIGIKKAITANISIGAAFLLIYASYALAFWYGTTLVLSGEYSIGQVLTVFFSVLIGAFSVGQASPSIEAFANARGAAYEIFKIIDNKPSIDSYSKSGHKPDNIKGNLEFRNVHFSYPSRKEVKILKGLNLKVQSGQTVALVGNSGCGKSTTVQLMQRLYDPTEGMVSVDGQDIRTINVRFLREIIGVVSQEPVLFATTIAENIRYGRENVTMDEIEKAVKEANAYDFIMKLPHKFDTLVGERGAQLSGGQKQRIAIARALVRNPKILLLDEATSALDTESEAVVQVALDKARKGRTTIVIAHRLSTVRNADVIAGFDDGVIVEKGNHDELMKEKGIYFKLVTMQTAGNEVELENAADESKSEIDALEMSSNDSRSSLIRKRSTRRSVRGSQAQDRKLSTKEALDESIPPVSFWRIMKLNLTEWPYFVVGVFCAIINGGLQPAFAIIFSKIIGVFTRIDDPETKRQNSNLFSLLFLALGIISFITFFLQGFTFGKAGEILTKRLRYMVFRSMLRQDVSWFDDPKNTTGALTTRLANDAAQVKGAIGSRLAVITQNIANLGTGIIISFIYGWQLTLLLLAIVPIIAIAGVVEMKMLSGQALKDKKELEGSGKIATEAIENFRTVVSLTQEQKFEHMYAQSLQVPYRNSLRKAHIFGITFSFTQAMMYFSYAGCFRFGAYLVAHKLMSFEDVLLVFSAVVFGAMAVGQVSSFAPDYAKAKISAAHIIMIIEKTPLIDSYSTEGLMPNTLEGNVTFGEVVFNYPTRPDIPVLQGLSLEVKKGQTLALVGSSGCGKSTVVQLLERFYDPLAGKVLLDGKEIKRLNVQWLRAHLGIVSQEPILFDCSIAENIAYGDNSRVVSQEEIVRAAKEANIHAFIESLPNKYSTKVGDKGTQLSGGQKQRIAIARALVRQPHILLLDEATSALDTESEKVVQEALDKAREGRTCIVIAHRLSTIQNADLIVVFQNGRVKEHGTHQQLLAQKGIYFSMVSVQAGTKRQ
Description: DU145-TXR cells were seeded at 350,000 cells per well in 6-well plates in complete RPMI medium. […] A full sample of DAU was also prepared for quantitative analysis. […] Media was removed with a glass vacuum aspirator. Cells were re-suspended and washed in 2mL of ice-cold Hank’s Balanced Salt Solution (HBSS, Gibco), and spun again at 2400 rpm. Cell lysates were diluted in 600 µL of ice-cold HBSS, flash-frozen in liquid nitrogen, and stored at −80 °C until analysis. LC-MS/MS intracellular accumulation assays were performed in collaboration with the Pharmacology Core at the University of Texas Southwestern Medical Center (UTSW). […] This method allowed us to quantify the change – if any – in the relative amount of compound present in the samples when TQR was added. An increase in the relative amount of compound indicates enhanced intracellular retention that compound. […] The “Internal Standard” (IS) is a known substance added in a constant amount to each sample. The “Peak Area”, expressed as “counts”, describes the number of MS/MS spectra from the experimental compound and serves as a measure of its relative abundance. […] These values allow a comparison of the relative abundance of compound between the “- TQR” and “+ TQR” samples, and to test for statistically significant differences. LC-MS/MS quantification was performed as follows. Cell lysate was aliquoted into Eppendorf tubes. In contrast to [9], blank cell lysates were not spiked with varying concentrations of each compound to create a standard curve, since compound amounts were normalized to abundance of the internal standard. […] The supernatant was then transferred to an HPCL vial, and subsequently analyzed using LC-MS/MS using a Sciex 4000QTRAP mass spectrometer coupled to a Shimadzu Prominence LC. […] The column flow rate was 1.5 ml/min using an Agilent C18 XDB, 5 micron packing 50 × 4.6 mm column. […] A BSA standard curve was then prepared in water and mixed using the same ratio. […] The ratio of Analyte to Internal Standard was normalized to the lysate content for each individual sample. […] Statistical significance was determined using a Student’s T Test in GraphPad Prism. We aimed to identify P-gp inhibitors that are not transport substrates of the pump itself. […] To test these predictions in vitro, liquid chromatography with tandem mass spectrometry (LC-MS/MS) was used to assess the intracellular accumulation of experimental compounds as described in [9]. […] The relative intracellular accumulation of each experimental compound was then assessed using LC-MS/MS. […] The P-gp substrate and chemotherapeutic daunorubicin (DAU) was used as a positive control for P-gp-mediated transport.

[3] = 15 µM compound + 500 nM PTX, mean of 8 or 12 samples
[4] = Homo sapiens, A2780, A2780 cells, 15 µM compound alone, mean of 8 or 12 samples, read-out: Mean % Survival
[5] = 1 µM compound + 500 nM PTX, mean of 12 samples

SMILES	Mean % Survival [1, 3]	% Survival (individual sample) ([1]; 15 µM compound + 500 nM PTX)	viability at 15 µM [1, 4]	Increase of PTX toxicity against parental A2780 cells [1]	% Survival (individual sample) ([1]; 15 µM compound alone)	P-gp transport substrate assessment [2]	Intracellular accumulation (normalized ratio of compound to internal standard), Trial 1, + TQR [2]	Intracellular accumulation (normalized ratio of compound to internal standard), Trial 2, + TQR [2]	Intracellular accumulation (normalized ratio of compound to internal standard), Trial 1, - TQR [2]	Intracellular accumulation (normalized ratio of compound to internal standard), Trial 2, - TQR [2]	P (- TQR vs + TQR), Trial 1 [2]	P (- TQR vs + TQR), Trial 2 [2]	Significance of accumulation with tariquidar, Trial 1 [2]	Significance of accumulation with tariquidar, Trial 2 [2]	Mean % Survival [1, 5]	% Survival (individual sample) ([1]; 1 µM compound + 500 nM PTX)	% Survival (individual sample) ([1]; 1 µM compound alone)	Mean % Survival ([1]; mean of 12 samples)	% Survival (individual sample) ([1]; 1 µM compound + 500 nM PTX, listed as TQR)	viability at 1 µM ([1]; Homo sapiens, A2780, A2780 cells, 1 µM compound alone, mean of 12 samples, read-out: Mean % Survival)
Cn1cnnc1SCc1c(C(=O)O)nnn1-c1nonc1N [Compound 59, Cn1cnnc1SCc1c(nnn1-c1nonc1N)C(O)=O]	11.4%	6% and 9%	99%																	
O=C(c1nc(-c2ccc3cc[nH]c3c2)no1)N1CCN(c2nsc3ccccc23)CC1 [Compound 70, O=C(N1CCN(CC1)c1nsc2ccccc12)c1nc(no1)-c1ccc2cc[nH]c2c1]	22.6%	14%	89.4%	did not greatly increase the toxicity of PTX against the parental A2780 cells	88%	unlikely to be transport substrates of P-gp	0.93 ± 0.07	0.55 ± 0.15	0.93 ± 0.15	0.56 ± 0.11	> 1	0.9	N.S. (P > 0.05 = not significant (N.S.))	N.S. (P > 0.05 = not significant (N.S.))						
Cc1onc(-c2ccccc2)c1-c1nnc(Cn2cnc3c(oc4ccccc43)c2=O)o1 [Compound 78, Cc1onc(c1-c1nnc(Cn2cnc3c4ccccc4oc3c2=O)o1)-c1ccccc1]	13.4%	8% and 18%	91.4%	did not greatly increase the toxicity of PTX against the parental A2780 cells	110%	unlikely to be transport substrates of P-gp	0.001 ± 0.000	0.001 ± 0.000	0.001 ± 0.000	0.001 ± 0.000										
NS(=O)(=O)c1cccc(NC(=O)CSc2nnnn2C2CC2)c1 [Compound 89, NS(=O)(=O)c1cccc(NC(=O)CSc2nnnn2C2CC2)c1]	10.3%	8% and 12%	87.9%		96%															
O=S(=O)(CCSc1nnc(-c2ccccc2)c2ccccc12)c1ccccc1 [Compound 96, O=S(=O)(CCSc1nnc(-c2ccccc2)c2ccccc12)c1ccccc1]	13.9%	19% and 20%	76.5%	did not greatly increase the toxicity of PTX against the parental A2780 cells		unlikely to be transport substrates of P-gp	0.092 ± 0.036	0.163 ± 0.032	0.087 ± 0.009	0.121 ± 0.005	0.8	0.09	N.S. (P > 0.05 = not significant (N.S.))	N.S. (P > 0.05 = not significant (N.S.))						
COc1ccc2c3c([nH]c2c1)[C@H](CC(C)C)N1C(=O)[C@H](CCC(=O)OC(C)(C)C)NC(=O)[C@@H]1C3 [Ko143, reference compound]															12.8%	16% and 15% and 9% and 49% and 7% and 8% and 10%	88% and 85% and 84% and 87% and 89% and 40% and 99% and 90% and 97% and 92%	85.3%		
COc1cc2c(cc1OC)CN(CCc1ccc(NC(=O)c3cc(OC)c(OC)cc3NC(=O)c3cnc4ccccc4c3)cc1)CC2 [Tariquidar, reference compound]															17.8%				12%	106%
